These are literature values, as cited in article PMC9959726 (Molecules, 2023).

Like-named read-outs stand apart in the source and are kept apart here.

In one data set the test system is MCF-7 cells. Also on record: method as in PMID 29959054. To be noted: from P. haussknechtii fruit; read-out: Cytotoxicity against MCF-7 cell, IC50.
The next data set has as its system CYP-1A2. Also on record: method as in PMID 34377680. The following applies: for Effect on CYP 1A2: from P. anisum root.
For data set [1] the following is noted: for antioxidant activity: compounds obtained from P. saxifraga; for antioxidant property: from P. brachycarpa.
For the next data set, the system named is DNA. To be noted: compounds obtained from P. saxifraga.
Another data set relates to α-glycosidase. To be noted: for α-glucosidase inhibitory: from P. candolleana; for α-glucosidase inhibition: from P. anthriscoides.
For another data set, the system named is pestiferous pests. Also on record: method as in PMID 29029251, PMID 29029346.
For data set [2] the following is noted: from P. thellungiana.
Details of data set [3]: method as in PMID 30704124.
The subject of a further data set is α-amylase. To be noted: from P. anthriscoides.
The test system of another data set is AChE. The following applies: from P. anthriscoides.
In the next data set the test system is BChE. To be noted: from P. anthriscoides.
In the next data set the test system is BEAS-2B and HepG2 cells. To be noted: PM2.5-induced BEAS-2B and HepG2 cells.

Take `CC(C)=CC(C)(O)C1OC(=O)Cc2oc(C)cc(=O)c21` (stereo not drawn) [Pimpinelol (205)]: the IC50 – broadly, the midpoint of a concentration-inhibition curve – in the data set on MCF-7 cells is 1.06 µM.
In the case of `COc1c2ccoc2c(OC)c2oc(=O)ccc12` [compound 274, isopimpinellin], the CYP-1A2 inhibition result in the data set on CYP-1A2 is recorded as “inhibitors”.
In the case of `COC(=O)/C=C/c1ccccc1O` [compound 48, methyl-O-coumarate], the antioxidant activity result in data set [1] is listed as “antioxidant activity”. Further, the DNA protection potential entry in the data set with DNA is given as “DNA protection potential”.
In the case of `COc1c2ccoc2cc2oc(=O)ccc12` [Bergapten (256)], in the data set with CYP-1A2, the “Effect on CYP 1A2” value is given as “Inhibitory effects on CYP 1A2”.
Turning to `COc1c2occc2cc2ccc(=O)oc12` [methoxsalen (275)], in the data set on CYP-1A2, the “Effect on CYP 1A2” value is “Inhibitory effects on CYP 1A2”.
`CCC(C=CC(C)C1CCC2C3CC=C4CC(OC(C)=O)CCC4(C)C3CCC12C)C(C)C` (stereo not drawn) [compound 294, Stigmasta-5, 22-dien-3-olacetate]: the antioxidant result in data set [1] (from P. candolleana) is given as “effective antioxidant”. For the same compound, the α-glucosidase inhibitory entry with α-glycosidase is on record as “α-glucosidase inhibitory”.
As for `COc1c2ccoc2cc2oc(=O)ccc12` [compound 256, bergapten], the CYP-1A2 inhibition entry in the data set on CYP-1A2 was “inhibitors”.
In the case of `CC[C@H](/C=C/[C@@H](C)[C@H]1CC[C@H]2[C@@H]3CC=C4C[C@@H](O)CC[C@]4(C)[C@H]3CC[C@]12C)C(C)C` [compound 296, stigmasterol], the antioxidant entry in [1] (from P. candolleana) is given as “effective antioxidant”. For the same compound, in the data set with α-glycosidase, the α-glucosidase inhibitory result is “α-glucosidase inhibitory”.
As to p-anisaldehyde [compound 47], the antioxidant activity entry in data set [1] was “antioxidant activity”. Also, the DNA protection potential result in the data set on DNA was “DNA protection potential”. Besides, in the data set on pestiferous pests, the reproduction of pests result was “inhibiting the reproduction of pests”.
As for `CCOC(c1cc(OC)ccc1OC(=O)C(C)CC)C(C)O` (stereo not drawn) [compound 2, 2-(1′-ethoxy-2′-hydroxy)propyl-4-methoxyphenyl-2-methyl-butyrate], in [2], the antihypertensive activity entry is listed as “significant antihypertensive activity”.
`COc1ccc(C=CC=O)cc1` [compound 50, 4-methoxycinnamaldehyde]: in [1], the antioxidant activity entry is given as “antioxidant activity”. For the same compound, the DNA protection potential result with DNA is recorded as “DNA protection potential”.
With `CC[C@H](CC[C@@H](C)[C@H]1CC[C@H]2[C@@H]3CC=C4C[C@@H](O[C@@H]5O[C@H](CO)[C@@H](O)[C@H](O)[C@H]5O)CC[C@]4(C)[C@H]3CC[C@]12C)C(C)C` [compound 295, daucosterol], in data set [1] (from P. candolleana), the antioxidant result is given as “effective antioxidant”. For the same compound, the α-glucosidase inhibitory result with α-glycosidase was “α-glucosidase inhibitory”.
For `CCC(=O)c1ccc(OC)cc1O` [compound 49, 1-(2-hydroxy-4-methoxyphenyl)propan1-one], in data set [1], the antioxidant activity result was “antioxidant activity”. Moreover, in the data set with DNA, the DNA protection potential result is listed as “DNA protection potential”.
With `CCOC(c1cc(OC)ccc1O)C(C)O` (stereo not drawn) [compound 1, 2-(1′-ethoxy-2′-hydroxy)propyl-4-methoxyphenol], the antihypertensive activity entry in data set [2] is “significant antihypertensive activity”.
Turning to umbelliprenin [compound 276], the skin whitening entry in data set [3] is “potential skin-whitening agent”.
`O=C(O)CC(O)(CC(=O)O)C(=O)O` [compound 338, citric acid]: in data set [1] (from P. anthriscoides), the antioxidant entry is reported as “proven antioxidant”. Also, the α-amylase inhibition result in the data set on α-amylase was “inhibiting”. Besides, in the data set on α-glycosidase, the α-glucosidase inhibition result is on record as “inhibiting”. In addition, the AChE inhibition entry in the data set with AChE is “inhibiting”. Besides, the BChE inhibition result in the data set with BChE was “inhibiting”.
Take `O=C(O)C(O)Cc1ccccc1` (stereo not drawn) [compound 337, 3-phenyllactic acid]: the antioxidant entry in data set [1] (from P. anthriscoides) is given as “proven antioxidant”. Besides, the α-amylase inhibition result with α-amylase is on record as “inhibiting”. Also, the α-glucosidase inhibition result with α-glycosidase was “inhibiting”. In the data set with AChE, the AChE inhibition entry is “inhibiting”. Moreover, the BChE inhibition result in the data set on BChE is given as “inhibiting”.
Take `C=CCc1cc2c(c(OC)c1OC)OCO2` [compound 51, dillapiole]: the antioxidant activity result in data set [1] is on record as “antioxidant activity”. In addition, the DNA protection potential result in the data set with DNA was “DNA protection potential”.
For `CC(=O)[C@H]1CC[C@H]2[C@@H]3CC=C4C[C@@H](O)CC[C@]4(C)[C@H]3CC[C@]12C` [compound 298, pregnenolone], the antioxidant property entry in data set [1] is given as “antioxidant property”.
As to `CC=Cc1ccc(OC)cc1` (stereo in doubt) [compound 40, cis-anethole], the “reduction of IL-8 level” value with BEAS-2B and HepG2 cells was 87%.
`COc1c2ccoc2c(OC)c2oc(=O)ccc12` [isopimpinellin (274)]: in the data set on CYP-1A2, the “Effect on CYP 1A2” value is “Inhibitory effects on CYP 1A2”.
Regarding `CC(=O)C(C)CCC(C)C1CCC2(C)C3CCC4C(C)(C)CCCC4(C)C3CCC12C` (stereo not drawn) [compound 297, 24ζ-Methyl-5R-lanosta-25-one], in [1], the antioxidant property entry is “antioxidant property”.
